Laboratory results as given in paper doi:10.1101/2024.12.04.625365v1 (biorxiv, 2024).

Legend:
recombinant hAQP4 (AQP4) = recombinant hAQP4 (AQP4) (Homo sapiens, UniProt P55087); assay: biochemical
[1] = target: T1, A2AR (human A2A receptor) (Homo sapiens, UniProt P29274); assay: displacement of [3H]ZM-241385 from crude Pichia membranes; assay type: binding
[2] = target: T1, A2AR (human A2A receptor); assay: intrinsic tryptophan fluorescence quenching; assay type: binding

T1 sequence (P29274 whole entry): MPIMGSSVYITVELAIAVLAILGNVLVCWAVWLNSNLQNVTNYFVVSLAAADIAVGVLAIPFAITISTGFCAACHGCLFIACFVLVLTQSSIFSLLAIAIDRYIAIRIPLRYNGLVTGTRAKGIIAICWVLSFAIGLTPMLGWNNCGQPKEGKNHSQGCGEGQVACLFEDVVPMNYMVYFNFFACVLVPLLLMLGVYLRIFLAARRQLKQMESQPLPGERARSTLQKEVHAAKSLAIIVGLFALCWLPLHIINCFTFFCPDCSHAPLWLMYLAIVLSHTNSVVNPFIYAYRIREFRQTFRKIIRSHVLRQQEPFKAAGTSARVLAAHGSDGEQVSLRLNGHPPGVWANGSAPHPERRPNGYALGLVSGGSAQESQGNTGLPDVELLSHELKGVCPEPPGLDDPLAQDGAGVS
Sequence of recombinant hAQP4 (AQP4) (P55087 whole entry): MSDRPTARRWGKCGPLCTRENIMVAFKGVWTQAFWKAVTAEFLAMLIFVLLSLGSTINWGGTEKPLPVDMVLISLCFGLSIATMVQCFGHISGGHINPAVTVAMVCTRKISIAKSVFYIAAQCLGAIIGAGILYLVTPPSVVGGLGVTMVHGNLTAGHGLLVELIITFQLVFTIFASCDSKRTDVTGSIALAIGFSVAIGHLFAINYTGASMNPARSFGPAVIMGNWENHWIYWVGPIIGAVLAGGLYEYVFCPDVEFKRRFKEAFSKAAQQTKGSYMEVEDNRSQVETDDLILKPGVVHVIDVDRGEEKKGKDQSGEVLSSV

Row | Compound | Kd (recombinant hAQP4 (AQP4)) | IC50 [1] | Kd [2]
1 | O=C(Nc1cc(C(F)(F)F)cc(C(F)(F)F)c1)c1cc(Cl)ccc1O [AER-270, N-(3,5-bis(trifluoromethyl)phenyl)-5-chloro-2-hydroxybenzamide] | 17 ± 3.1 µM |  | 
2 | O=C(Nc1nncs1)c1cccnc1 [TGN-020, N-1,3,4-thiadiazol-2-yl-3-pyridinecarboxamide] |  | 20 µM | 54 µM
